Data taken from patent US6897209B2, “Labelled factor XIIIa substrates” (GE Healthcare Limited, priority 1997, dated 2005).
Values belong to the compound of their own block, whether it stands above or below them.

Columns and labels:
[1] = system: clots induced in rat inferior vena cava; test: Incorporation into clots induced in a rat model (rat inferior vena cava model); assay type: in vivo; settings: rat IVC model; for Clot/Blood / Clot/Heart / Clot/Liver / Clot/Lung: 60 min; for % ID/g (clot uptake) / Relative conc (cpm/g of clot by dose/g animal): compound injected 5 min post-induction, clot removed after 60 min
Protocol: The rats (Male Wistar, 250-350 g) were anaesthetised with 15% urethane. After laparotomy, the vena cava was isolated and freed of surrounding fat tissue. […] The average weight of the clots formed in this model was around 27 mg, n=32, (5-50 mg range). The so compounds were injected 5 min post-induction. After 60 min the animals were sacrificed and the clot removed, weighed and counted. Other tissues e.g. blood, lung, heart, were also dissected and counted. The uptake of tracer into the clot was determined as the relative concentration (cpm/g of clot by dose/g animal ) and clot to background tissue.

[2] = Normal rat biodistribution; assay type: in vivo; settings: i.v., male Wistar rats, Mean±SD n=3
Protocol: The resolution of a clot image is dependant on the combination of rate of incorporation of the radiopharmaceutical and its blood/tissues clearance rate. For this reason the biodistribution of several compounds has been determined in rats. Male Wistar (100-150 g) rats were injected i.v. with 0.1-0.2 ml of radiolabelled tracer solution (8 MBq/ml) and dissected at different times post-injection. The % ID in each of the selected tissues was measured. Some animals were kept in metabolism cages to be able to determine the % ID excreted in urine and faeces. The dissection times used for the majority of the agents was 2, 15, 30, 60, 240 min. Data are shown as % ID, Mean±SD, (n=3).

human plasma clots [3] = test: Incorporation into human plasma clots (in vitro plasma clot assay); assay type: biochemical; settings: control vials without thrombin and calcium chloride, 60 minutes
Protocol: (§1) Incorporation of radiolabelled substrates into fibrin was investigated by induction of an in vitro human plasma clot in the following manner. To a siliconised 5 ml glass vial was added, (a) 800 μl of Tris(hydroxymethyl)aminomethane buffered saline pH 7.5 containing calcium chloride (50 mM Tris, 150 mM sodium chloride, 4 mM calcium chloride.), (b) 40 μl of physiological salt solution containing 100 units of thrombin per ml, (c) 400 μl of human plasma containing the radiolabelled substrate at a concentration of typically 10 kBq/ml. To aid induction of clot a roughened glass rod was added to the reaction vial. Control vials were prepared similarly but with the omission of thrombin and calcium chloride.
(§2) The proportion of total radioactivity was calculated by counting in suitable detection apparatus.
(§3) The fraction of radioactivity retained on the filter, after subtraction of the non-specific binding determined from the control, is a measure of incorporation into the filtered clots.

human plasma clots [4] = target: T1, human plasma clots (Homo sapiens, UniProt P00488); test: as above; assay type: biochemical; settings: for % specific uptake*: % retained with thrombin − % retained no thrombin; for % retained in plasma clot assay (with thrombin): human plasma with thrombin and calcium chloride, 60 minutes, ca. 20° C.
T1 construct: Factor XIII is transformed into its active form Factor XIIIa by thrombin in the presence of calcium ions; from tissue; host or cells: human plasma, clotted in vitro with thrombin and calcium chloride
T1 sequence (P00488 39-732): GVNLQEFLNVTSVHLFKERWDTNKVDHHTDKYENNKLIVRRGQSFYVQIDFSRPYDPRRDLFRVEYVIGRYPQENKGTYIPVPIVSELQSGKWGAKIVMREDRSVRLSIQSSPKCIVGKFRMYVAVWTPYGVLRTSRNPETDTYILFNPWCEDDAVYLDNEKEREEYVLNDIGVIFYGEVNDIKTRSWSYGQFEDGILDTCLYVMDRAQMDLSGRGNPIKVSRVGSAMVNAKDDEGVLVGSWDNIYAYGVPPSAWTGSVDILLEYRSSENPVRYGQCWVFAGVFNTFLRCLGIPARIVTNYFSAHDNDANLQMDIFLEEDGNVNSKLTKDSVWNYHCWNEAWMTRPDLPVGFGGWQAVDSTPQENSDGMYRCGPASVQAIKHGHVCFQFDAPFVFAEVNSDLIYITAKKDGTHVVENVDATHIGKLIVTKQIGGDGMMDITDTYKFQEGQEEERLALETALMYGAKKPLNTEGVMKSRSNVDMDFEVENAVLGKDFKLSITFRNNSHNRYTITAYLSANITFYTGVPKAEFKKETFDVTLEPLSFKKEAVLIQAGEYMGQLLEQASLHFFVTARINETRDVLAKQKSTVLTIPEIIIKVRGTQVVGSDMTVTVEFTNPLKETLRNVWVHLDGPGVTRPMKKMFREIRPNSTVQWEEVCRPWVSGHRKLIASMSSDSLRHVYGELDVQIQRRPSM
Protocol: as §1, §2, §3

Factor XIIIa = target: T2, Factor XIIIa (Homo sapiens, UniProt P00488); test: Factor XIIIa dependency of incorporation (dimethylcasein uptake, normal vs Factor XIII deficient plasma); assay type: biochemical; settings: 1 KBq/ml, 60 minutes; uptake in normal plasma minus Factor XIII deficient plasma
T2 construct: Factor XIII is transformed into its active form Factor XIIIa by thrombin in the presence of calcium ions; from tissue; host or cells: human plasma
T2 sequence (P00488 39-732 limits assumed): T1 sequence (P00488 39-732)
Protocol: The assay was changed by replacing the mercaptoethanol with aprotinin at a final concentration of 2 μg/ml, and dimethylcasein (DMC) was used instead of casein.

SMILES: NCCCCCNS(=O)(=O)c1ccc(C(=O)NCCCNC(=O)c2ccc(NN)nc2)cc1 [Compound 24, N-[6-hydrazinopyridine-3-carbonyl]-N′-(4-N-(5-aminopentyl)amidosulphonyl)benzoyl propane-1,3-diamine]
Clot/Blood [1]: 1.8 | Clot/Heart [1]: 3.9 | Clot/Liver [1]: 0.93 | Clot/Lung [1]: 2.5 | % ID/g (clot uptake) [1]: 0.21 ± 0.02 % ID/g | Relative conc (cpm/g of clot by dose/g animal) [1]: 0.62 ± 0.1 | % ID Blood ([2]; 2 min post-injection): 18.2 ± 1.39 % ID | % ID GI Tract ([2]; 2 min post-injection): 7.48 ± 0.45 % ID | % ID Heart ([2]; 2 min post-injection): 0.73 + 0.1 % ID | % ID Kidney ([2]; 2 min post-injection): 10.2 ± 3.07 % ID | % ID Liver ([2]; 2 min post-injection): 5.38 ± 0.75 % ID | % ID Lung ([2]; 2 min post-injection): 1.99 ± 0.12 % ID | % ID Muscle ([2]; 2 min post-injection): 28.5 ± 0.25 % ID | % ID Urine ([2]; 2 min post-injection): 0.11 ± 0.1 % ID | % ID Blood ([2]; 15 min post-injection): 7.11 ± 1.29 % ID | % ID GI Tract ([2]; 15 min post-injection): 23.3 ± 6.5 % ID | % ID Heart ([2]; 15 min post-injection): 0.3 + 0.08 % ID | % ID Kidney ([2]; 15 min post-injection): 4.11 ± 1.31 % ID | % ID Liver ([2]; 15 min post-injection): 6.7 ± 1.21 % ID | % ID Lung ([2]; 15 min post-injection): 0.78 ± 0.16 % ID | % ID Muscle ([2]; 15 min post-injection): 17.9 ± 4.38 % ID | % ID Urine ([2]; 15 min post-injection): 8.64 ± 5.6 % ID | % ID Blood ([2]; 30 min post-injection): 3.86 ± 0.62 % ID | % ID GI Tract ([2]; 30 min post-injection): 31.5 ± 11.9 % ID | % ID Heart ([2]; 30 min post-injection): 0.13 + 0.03 % ID | % ID Kidney ([2]; 30 min post-injection): 2.52 ± 1.1 % ID | % ID Liver ([2]; 30 min post-injection): 3.67 ± 0.62 % ID | % ID Lung ([2]; 30 min post-injection): 0.39 ± 0.06 % ID | % ID Muscle ([2]; 30 min post-injection): 10.2 ± 1.09 % ID | % ID Urine ([2]; 30 min post-injection): 31.0 ± 9.41 % ID | % ID Blood ([2]; 60 min post-injection): 1.6 ± 0.57 % ID | % ID GI Tract ([2]; 60 min post-injection): 38.8 ± 9.6 % ID | % ID Heart ([2]; 60 min post-injection): 0.06 + 0.03 % ID | % ID Kidney ([2]; 60 min post-injection): 1.4 ± 0.38 % ID | % ID Liver ([2]; 60 min post-injection): 1.6 ± 0.29 % ID | % ID Lung ([2]; 60 min post-injection): 0.18 ± 0.06 % ID | % ID Muscle ([2]; 60 min post-injection): 3.62 ± 0.9 % ID | % ID Urine ([2]; 60 min post-injection): 44.9 ± 7.32 % ID | % ID Blood ([2]; 240 min post-injection): 0.29 ± 0.06 % ID | % ID GI Tract ([2]; 240 min post-injection): 46.3 ± 4.4 % ID | % ID Heart ([2]; 240 min post-injection): 0.02 + 0.01 % ID | % ID Kidney ([2]; 240 min post-injection): 0.92 ± 0.37 % ID | % ID Liver ([2]; 240 min post-injection): 0.3 ± 0.03 % ID | % ID Lung ([2]; 240 min post-injection): 0.05 ± 0.02 % ID | % ID Muscle ([2]; 240 min post-injection): 1.1 ± 0.32 % ID | % ID Urine ([2]; 240 min post-injection): 49.51 ± 4.62 % ID | % retained in plasma clot assay (no thrombin) (human plasma clots [3]): 0.2% | % specific uptake* (human plasma clots [4]): 13.8% | % retained in plasma clot assay (with thrombin) (human plasma clots [4]): 14% | % specific DMC casein uptake (Factor XIIIa): 22.5%

% ID Blood ([2]; 2 min post-injection): 17.8 ± 1.78 % ID | % ID GI Tract ([2]; 2 min post-injection): 6.61 ± 0.43 % ID | % ID Heart ([2]; 2 min post-injection): 0.44 ± 0.09 % ID | % ID Kidney ([2]; 2 min post-injection): 10.55 ± 1.1 % ID | % ID Liver ([2]; 2 min post-injection): 5.61 ± 0.23 % ID | % ID Lung ([2]; 2 min post-injection): 1.53 ± 0.12 % ID | % ID Muscle ([2]; 2 min post-injection): 32.9 ± 0.97 % ID | % ID Urine ([2]; 2 min post-injection): 1.74 ± 1.05 % ID | % ID Blood ([2]; 30 min post-injection): 2.20 ± 0.5 % ID | % ID GI Tract ([2]; 30 min post-injection): 27.3 ± 3.45 % ID | % ID Heart ([2]; 30 min post-injection): 0.06 ± 0.01 % ID | % ID Kidney ([2]; 30 min post-injection): 3.47 ± 0.71 % ID | % ID Liver ([2]; 30 min post-injection): 5.15 ± 0.75 % ID | % ID Lung ([2]; 30 min post-injection): 0.31 ± 0.08 % ID | % ID Muscle ([2]; 30 min post-injection): 4.63 ± 0.25 % ID | % ID Urine ([2]; 30 min post-injection): 48.0 ± 2.22 % ID | % ID Blood ([2]; 60 min post-injection): 0.38 ± 0.14 % ID | % ID GI Tract ([2]; 60 min post-injection): 31.6 ± 6.4 % ID | % ID Heart ([2]; 60 min post-injection): 0.01 ± 0.01 % ID | % ID Kidney ([2]; 60 min post-injection): 1.80 ± 0.65 % ID | % ID Liver ([2]; 60 min post-injection): 3.07 ± 0.47 % ID | % ID Lung ([2]; 60 min post-injection): 0.09 ± 0.03 % ID | % ID Muscle ([2]; 60 min post-injection): 1.51 ± 0.53 % ID | % ID Urine ([2]; 60 min post-injection): 58.2 ± 8.87 % ID | % ID Blood ([2]; 240 min post-injection): 0.04 ± 0.04 % ID | % ID GI Tract ([2]; 240 min post-injection): 36.5 ± 1.5 % ID | % ID Heart ([2]; 240 min post-injection): 0.00 % ID | % ID Kidney ([2]; 240 min post-injection): 1.06 ± 0.06 % ID | % ID Liver ([2]; 240 min post-injection): 2.01 ± 0.11 % ID | % ID Lung ([2]; 240 min post-injection): 0.04 ± 0.00 % ID | % ID Muscle ([2]; 240 min post-injection): 0.55 ± 0.08 % ID | % ID Urine ([2]; 240 min post-injection): 58.9 ± 1.66 % ID | % specific uptake* (human plasma clots [4]): 1.2% | % retained in plasma clot assay (with thrombin) (human plasma clots [4]): 2% | % specific DMC casein uptake (Factor XIIIa): 1%
SMILES: CC(=NO)C(C)(C)NCCN(CCNC(=O)c1ccc(S(=O)(=O)NCCCCCN)cc1)CCNC(C)(C)C(C)=NO [Compound 16, 3,3,11,11-tetramethyl-7-(4-N-(5-aminopentyl)-amidosulphonyl)benzamidoethyl-4,7,10-triazatridecane-2,12-dione dioxime]
Clot/Blood [1]: 1.7 | Clot/Heart [1]: 3.8 | Clot/Liver [1]: 0.37 | Clot/Lung [1]: 2.1 | % ID/g (clot uptake) [1]: 0.27 ± 0.06 % ID/g | Relative conc (cpm/g of clot by dose/g animal) [1]: 0.93 ± 0.16 | % retained in plasma clot assay (no thrombin) (human plasma clots [3]): 0.8%
